What was measured:
[1] = Related substances (total impurities) by HPLC in stability experiments; type: physicochemical; details: within the coating
Procedure: • Analytical procedure: Ph. Eur. <2.2.29>; HPLC
• Column: Luna C18 (2) 5 μm, 150×4.6 mm. • Mobile phase: Acetonitrile/0.5% phosphoric acid as following:
• 0.5% phosphoric acid: using a pipette, transfer 5 ml of o-phosphoric acid (85%) to a 1,000 ml calibrated flask and dilute to volume with water HPLC grade. • Flow: 1.0 ml/min. • Wavelength detection: 210 nm. • Injection volume: 20 μl. • Column temperature: 30° C. • Retention time of Albaconazole: approx. 20.0 min. • Chromatogram time: 29 min.
Test solution: Grind the content (pellets) of, at least, 5 capsules, from the obtained powder weight, accurately, about 150 mg and transfer to a 25 ml calibrated flask. Add about 20 ml of acetonitrile HPLC grade and apply the ultrasound during approximately 10 min. Allow to cool and dilute to volume with acetonitrile HPLC grade. Filter through a 0.45 μm Millex HV-PVDF filter or similar, discard the first drops of filtrate (perform in triplicate).
Individual related substances that are lower than the quantification limit (Quantification limit: QL=0.015%), and any peak corresponding to placebo have not been quantified. The compositions of the invention may be used in the treatment of fungal infections in a patient by orally administering said compositions to said patient.

[2] = Dissolution test (Ph. Eur. 2.9.3, paddle apparatus, 0.1 N HCl, 45 min); type: physicochemical; details: HCl 0.1N, 45 minutes where stated
Procedure: • Analytical procedure: Ph. Eur. <2.9.3>; UVNis
• Paddle apparatus. • Stirring speed: 100 rpm. • Dissolution medium: 0.1 N Hydrochloric acid.
0.1 N Hydrochloric acid: using a pipette, transfer 8.5 ml of hydrochloric acid to a 1,000 ml calibrated flask and dilute to volume with water HPLC grade. • Volume of dissolution medium: 900 ml. • Dissolution time: 45 min. • Temperature of dissolution medium: 37±0.5° C.

| SMILES | Impurities during stability experiments (in words) [1] | Dissolution behaviour (observation in words) [2] |
| --- | --- | --- |
| C[C@@H](n1cnc2cc(Cl)ccc2c1=O)[C@](O)(Cn1cncn1)c1ccc(F)cc1F [Albaconazole form Ill, Albaconazole] | low impurities during stability experiments | excellent dissolution results |
| C[C@@H](n1cnc2cc(Cl)ccc2c1=O)[C@](O)(Cn1cncn1)c1ccc(F)cc1F [crystalline Albaconazole, Albaconazole] |  | dissolves faster at early times than amorphous Albaconazole |
